Assay results published in the supplement of paper PMC10307832.

Columns and labels:
Assay in all cases: relative viability (nuclei count vs DMSO), 5 days (fraction); higher = more cells survive
A-427 = test system: A-427
In short: (§1)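 Lung cancer cell lines were seeded in 1536-well plates and dosed by pin tool the next day, with either a single drug or a fixed anchor-drug dose combined with five library-drug doses (not always all listed) spaced in √10 steps. Five days later, one step fixed the cells and stained their nuclei (final 0.05% Triton X-100, 1% formaldehyde, 1 ug/ml Hoechst), and nuclei were counted on 4× images. Relative viability is the nuclei count in treated wells divided by the count in vehicle wells, and each value is the median of duplicate plates.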

HCC-15 = test system: HCC-15
In short: as §1

HOP-62 = test system: HOP-62
In short: as §1

LC-2-ad = test system: LC-2-ad
In short: as §1

LXF-289 = test system: LXF-289
In short: as §1

NCI-H1734 = test system: NCI-H1734
In short: as §1

NCI-H1755 = test system: NCI-H1755
In short: as §1

NCI-H1792 = test system: NCI-H1792
In short: as §1

NCI-H1915 = test system: NCI-H1915
In short: as §1

NCI-H1975 = test system: NCI-H1975
In short: as §1

NCI-H2126 = test system: NCI-H2126
In short: as §1

NCI-H2228 = test system: NCI-H2228
In short: as §1

NCI-H2342 = test system: NCI-H2342
In short: as §1

NCI-H2347 = test system: NCI-H2347
In short: as §1

NCI-H358 = test system: NCI-H358
In short: as §1

NCI-H522 = test system: NCI-H522
In short: as §1

NCI-H647 = test system: NCI-H647
In short: as §1

PC-3 [JPC-3] = test system: PC-3 [JPC-3]
In short: as §1

RERF-LC-KJ = test system: RERF-LC-KJ
In short: as §1

SK-LU-1 = test system: SK-LU-1
In short: as §1

SW 1573 = test system: SW 1573
In short: as §1

## COc1nc(C)cnc1NS(=O)(=O)c1cccnc1-c1ccc(-c2nnco2)cc1 [Zibotentan] + CCNC(=O)c1noc(-c2cc(C(C)C)c(O)cc2O)c1-c1ccc(CN2CCOCC2)cc1 [Luminespib] (partner 0.01 µM)
A-427; first compound 0.08 µM
  relative viability: 1.16
A-427; first compound 0.253 µM
  relative viability: 0.857
A-427; first compound 0.8 µM
  relative viability: 0.998
A-427; first compound 2.53 µM
  relative viability: 0.911
HCC-15; first compound 0.08 µM
  relative viability: 0.244
HCC-15; first compound 0.253 µM
  relative viability: 0.114
HCC-15; first compound 0.8 µM
  relative viability: 0.4
HCC-15; first compound 2.53 µM
  relative viability: 0.365
HOP-62; first compound 0.08 µM
  relative viability: 0.911
HOP-62; first compound 0.253 µM
  relative viability: 0.869
HOP-62; first compound 0.8 µM
  relative viability: 0.906
HOP-62; first compound 2.53 µM
  relative viability: 0.956
LC-2-ad; first compound 0.08 µM
  relative viability: 1.25
LC-2-ad; first compound 0.8 µM
  relative viability: 1.32
LC-2-ad; first compound 2.53 µM
  relative viability: 1.06
LXF-289; first compound 0.08 µM
  relative viability: 0.657
LXF-289; first compound 0.253 µM
  relative viability: 0.683
LXF-289; first compound 0.8 µM
  relative viability: 0.627
LXF-289; first compound 2.53 µM
  relative viability: 0.756
NCI-H1734; first compound 0.08 µM
  relative viability: 0.19
NCI-H1734; first compound 0.253 µM
  relative viability: 0.164
NCI-H1734; first compound 0.8 µM
  relative viability: 0.195
NCI-H1734; first compound 2.53 µM
  relative viability: 0.262
NCI-H1755; first compound 0.08 µM
  relative viability: 0.338
NCI-H1755; first compound 0.253 µM
  relative viability: 0.558
NCI-H1755; first compound 0.8 µM
  relative viability: 0.489
NCI-H1755; first compound 2.53 µM
  relative viability: 0.252
NCI-H1792; first compound 0.08 µM
  relative viability: 0.417
NCI-H1792; first compound 0.253 µM
  relative viability: 0.362
NCI-H1792; first compound 0.8 µM
  relative viability: 0.469
NCI-H1792; first compound 2.53 µM
  relative viability: 0.346
NCI-H1915; first compound 0.08 µM
  relative viability: 0.939
NCI-H1915; first compound 0.253 µM
  relative viability: 0.873
NCI-H1915; first compound 0.8 µM
  relative viability: 0.754
NCI-H1915; first compound 2.53 µM
  relative viability: 0.809
NCI-H1975; first compound 0.08 µM
  relative viability: 0.305
NCI-H1975; first compound 0.253 µM
  relative viability: 0.0756
NCI-H1975; first compound 0.8 µM
  relative viability: 0.198
NCI-H1975; first compound 2.53 µM
  relative viability: 0.218
NCI-H2126; first compound 0.08 µM
  relative viability: 0.978
NCI-H2126; first compound 0.8 µM
  relative viability: 0.896
NCI-H2126; first compound 2.53 µM
  relative viability: 0.919
NCI-H2228; first compound 0.08 µM
  relative viability: 0.154
NCI-H2228; first compound 0.253 µM
  relative viability: 0.134
NCI-H2228; first compound 0.8 µM
  relative viability: 0.157
NCI-H2228; first compound 2.53 µM
  relative viability: 0.191
NCI-H2342; first compound 0.08 µM
  relative viability: 0.702
NCI-H2342; first compound 0.253 µM
  relative viability: 0.617
NCI-H2342; first compound 0.8 µM
  relative viability: 0.652
NCI-H2342; first compound 2.53 µM
  relative viability: 0.738
NCI-H2347; first compound 0.253 µM
  relative viability: 0.382
NCI-H2347; first compound 0.8 µM
  relative viability: 0.426
NCI-H2347; first compound 2.53 µM
  relative viability: 0.452
NCI-H358; first compound 0.08 µM
  relative viability: 0.302
NCI-H358; first compound 0.8 µM
  relative viability: 0.435
NCI-H358; first compound 2.53 µM
  relative viability: 0.555
NCI-H522; first compound 0.08 µM
  relative viability: 1.26
NCI-H522; first compound 0.253 µM
  relative viability: 1.02
NCI-H522; first compound 0.8 µM
  relative viability: 1.13
NCI-H522; first compound 2.53 µM
  relative viability: 1.09
NCI-H647; first compound 0.08 µM
  relative viability: 0.244
NCI-H647; first compound 0.253 µM
  relative viability: 0.16
NCI-H647; first compound 0.8 µM
  relative viability: 0.185
NCI-H647; first compound 2.53 µM
  relative viability: 0.164
PC-3 [JPC-3]; first compound 0.08 µM
  relative viability: 0.692
PC-3 [JPC-3]; first compound 0.253 µM
  relative viability: 0.738
PC-3 [JPC-3]; first compound 0.8 µM
  relative viability: 0.774
PC-3 [JPC-3]; first compound 2.53 µM
  relative viability: 0.718
RERF-LC-KJ; first compound 0.08 µM
  relative viability: 1.3
RERF-LC-KJ; first compound 0.253 µM
  relative viability: 1.18
RERF-LC-KJ; first compound 0.8 µM
  relative viability: 1.44
RERF-LC-KJ; first compound 2.53 µM
  relative viability: 1.35
SK-LU-1; first compound 0.08 µM
  relative viability: 0.236
SK-LU-1; first compound 0.253 µM
  relative viability: 0.171
SK-LU-1; first compound 0.8 µM
  relative viability: 0.213
SK-LU-1; first compound 2.53 µM
  relative viability: 0.194
SW 1573; first compound 0.08 µM
  relative viability: 0.341
SW 1573; first compound 0.8 µM
  relative viability: 0.348
SW 1573; first compound 2.53 µM
  relative viability: 0.269
